Measurements published in US10226467B2, “Compounds for the treatment of myotonic dystrophy” (UNIVERSITAT DE VALÈNCIA, priority 2014, dated 2019).

Tests used:
[1] = system: MBNL1 in DM1 myoblasts; experiment: Quantification of Mbl expression or localization (anti-MBNL1 immunodetection); type: cell-based, human; conditions: FIG. 6, at 1 microM, one day, versus DMSO
Description: Immortalized transdifferentiated DM1 fibroblasts were seeded in a […] (8000 cell/per well) in standard media. To achieve the differentiation of the fibroblast to myoblasts, we induced MyoD expression by changing the standard media to differentiation media with Doxocycline and without serum. 24 h after induction, the compounds were added the cells at different concentrations, always maintaining the concentration of the solvent (DMSO) at 1% in the media. Every concentration of compound was tested in three different wells. 24 h after adding the compounds the cells were fixed with paraformaldehyde 4% in PBS and Mbl detection using monoclonal anti-MBNL1 antibody was performed counterstaining with Hoechst to detect the nuclei. Incell 200 plate reader confocal was used for detection and quantification of the parameters selected and the data was analyzed using Graphpad software for statistical comparison of results.

[2] = system: ribonuclear foci in DM1 fibroblasts; experiment: Ribonuclear foci per cell (in situ hybridization of CUG repeat RNA); type: cell-based, human; conditions: FIG. 4, versus DMSO
Source text: Its reduction is typically used as evidence of desired activity against myotonic dystrophy in cell culture models because MBNL proteins are sequestered in ribonuclear foci. Since MBNL proteins are limiting in myotonic dystrophies an increase in free MBNLs is expected to be therapeutic. • Evidences from Human Myoblasts:
Cell model of the disease (provided by the D. Furling's laboratory, Institute of Myologie, Paris) consisted of normal and DM1 (1300 CTG repeats) immortalized (hTERT) skin fibroblasts expressing conditional MyoD. Fibroblast cells were grown in Dulbecco's Modified Eagle Medium (DMEM) with 4.5 g/L of glucose, 1% of penicillin and streptomycin (P/S) and 10% foetal bovine serum (FBS) (Sigma). Fibroblasts were transdifferentiated in myoblasts by inducing expression of MyoD. […]
In situ hybridization with CUG repeat RNA. […] Images were taken using a Leica DM2500 fluorescence microscope and foci were manually counted from at least 50 cells per compound.
DM1 fibroblasts were seeded in a […] (8000 cell/per well) in standard media one day before adding the compounds to the media. […] Incell 200 plate reader confocal was used for detection and quantification of the parameters selected and the data was analyzed using Graphpad software for statistical comparison of results.

[3] = system: 6-FAM-(CUG)23 probe (CUG repeats RNA); experiment: Fluorescence polarization assay of binding to CUG repeat RNA; conditions: FIG. 2; increasing concentrations; compared to a control compound that does not bind CUG repeats
Description: This was assessed in fluorescence polarization spectroscopy experiments. In these tests, when polarized light excites a fluorophore conjugated to a small molecule, it undergoes rotational diffusion faster than the time required for light emission occurs, resulting in a random arrangement of the molecule in the fluorescence emission time (depolarization). However, the rotation of the molecule becomes slower depending on the viscosity of the medium or the molecular volume, increasing the polarization of the emitted light. Thus, by measuring changes in polarization of an RNA with 23 CUG repeats conjugated to the fluorophore carboxyfluorescein, FAM (CUG) 23, we can consider whether a candidate molecule binds to the RNA.
Fluorescent CUG RNA (carboxyfluorescein (6-FAM)-labeled) was incubated with increasing concentrations of example compounds. […]
Carboxyfluorescein-labeled CUG RNA (6-FAM-CUG23) at 6 nM was incubated with the compounds at different concentrations in binding buffer (50 mM Tris-HCl pH 7.0, 250 mM NaCl, 50 μM ZnCl2, 10% glycerol, 1 mM DTT) on ice for 20 min in the dark. Polarization was measured in an EnVision® Multilabel Reader using as excitation filter FP480 and as emission filter FP535.

[4] = system: 6-FAM-(CUG)23 probe (CUG repeats RNA); conditions: positive control, Warf et al. 2009; cited from earlier work

SMILES | Mbl staining intensity in nuclei [1] | further results
Cn1c(=O)[nH]c2ncn(C)c2c1=O [Compound 6, 1,7-Dimethylxanthine] | increase significantly | –
CC(C)Cn1c(=O)n(C)c(=O)c2[nH]cnc21 [Compound 7, 3-Isobutyl-1-methylxanthine] | increase significantly | –
Cn1c(=O)[nH]c(=O)c2[nH]cnc21 [Compound 8, 3-Methylxanthine] | increase significantly | –
CCCn1c(=O)c2[nH]cnc2n(CC)c1=O [Compound 9, 3-Ethyl-1-propylxanthine] | increase significantly | –
Cn1c(=O)c2c(ncn2CCCCCCCn2cnc3c2c(=O)n(C)c(=O)n3C)n(C)c1=O [Theophylline-C7] | – | mean number of ribonuclear foci per cell [2]: significantly decreased
Cn1c(=O)c2c(ncn2CCCCCCCCCn2cnc3c2c(=O)n(C)c(=O)n3C)n(C)c1=O [Theophylline-C9] | – | mean number of ribonuclear foci per cell [2]: significantly decreased; binding to CUG repeats (polarization of 6-FAM-(CUG)23 probe relative to probe alone) [3]: very strong bond
N=C(N)c1ccc(OCCCCCOc2ccc(C(=N)N)cc2)cc1 [pentamidine] | – | binding to CUG repeats (previously shown) [4]: attached to the CUG repeats
